Measurements from ChEMBL document CHEMBL3045836, “Synthesis characterization and biological evaluation of some alkoxyphthalimide derivatives of 3-(4-substituted phenyl)-6,6-diphenyl-3,3a-dihydro-2H-imidazo[2,1-b]pyrazolo[3,4-d][1,3]thiazol-7(6H)-one” (2011).

Assays:
Assay type in all cases: functional
Conditions in all cases: read-out: IZ
Bacillus subtilis = test: Antibacterial activity against Bacillus subtilis at 500 ppm
Candida albicans = test: Antifungal activity against Candida albicans at 500 ppm
Escherichia coli = test: Antibacterial activity against Escherichia coli at 500 ppm
Pseudomonas aeruginosa = test: Antibacterial activity against Pseudomonas aeruginosa at 500 ppm
Proteus mirabilis = test: Antibacterial activity against Proteus mirabilis at 500 ppm
Aspergillus fumigatus = test: Antifungal activity against Aspergillus fumigatus at 500 ppm

Compound | zone of inhibition at 500 ppm (Bacillus subtilis) | zone of inhibition at 500 ppm (Candida albicans) | zone of inhibition at 500 ppm (Escherichia coli) | zone of inhibition at 500 ppm (Pseudomonas aeruginosa) | zone of inhibition at 500 ppm (Proteus mirabilis) | zone of inhibition at 500 ppm (Aspergillus fumigatus)
O=C1c2ccccc2C(=O)N1OCCN1N=C2C(SC3=NC(c4ccccc4)(c4ccccc4)C(=O)N32)C1c1ccc(Cl)cc1 (stereo unspecified) | 4 mm | 20 mm | 11 mm | 9 mm | 5 mm | 6 mm
O=C1c2ccccc2C(=O)N1OCCN1N=C2C(SC3=NC(c4ccccc4)(c4ccccc4)C(=O)N32)C1c1ccccc1 (stereo unspecified) | 9 mm | 19 mm | 12 mm | 14 mm | 3 mm | 4 mm
O=C1c2ccccc2C(=O)N1OCCN1N=C2C(SC3=NC(c4ccccc4)(c4ccccc4)C(=O)N32)C1c1ccc(F)cc1 (stereo unspecified) | 6 mm | 20 mm | 12 mm | 11 mm | 8 mm | 5 mm
COc1ccc(C2C3SC4=NC(c5ccccc5)(c5ccccc5)C(=O)N4C3=NN2CCON2C(=O)c3ccccc3C2=O)cc1 (stereo unspecified) | 11 mm | 18 mm | 9 mm | 17 mm | 6 mm | 3 mm
CN(C)c1ccc(C2C3SC4=NC(c5ccccc5)(c5ccccc5)C(=O)N4C3=NN2CCON2C(=O)c3ccccc3C2=O)cc1 (stereo unspecified) | 7 mm | 17 mm | 10 mm | 10 mm | 5 mm | 2 mm
O=C1c2ccccc2C(=O)N1OCCNc1nc(-c2ccc(Cl)cc2)c2c(n1)N1C(=O)C(c3ccccc3)(c3ccccc3)N=C1S2 | 5 mm | 11 mm | 13 mm | 13 mm | 4 mm | 6 mm
O=C1c2ccccc2C(=O)N1OCCNc1nc(-c2ccccc2)c2c(n1)N1C(=O)C(c3ccccc3)(c3ccccc3)N=C1S2 | 7 mm | 26 mm | 18 mm | 14 mm | 10 mm | 2 mm
O=C1c2ccccc2C(=O)N1OCCNc1nc(-c2ccc(F)cc2)c2c(n1)N1C(=O)C(c3ccccc3)(c3ccccc3)N=C1S2 | 13 mm | 23 mm | 13 mm | 21 mm | 8 mm | 4 mm
COc1ccc(-c2nc(NCCON3C(=O)c4ccccc4C3=O)nc3c2SC2=NC(c4ccccc4)(c4ccccc4)C(=O)N23)cc1 | 12 mm | 21 mm | 11 mm | 12 mm | 6 mm | 5 mm
CN(C)c1ccc(-c2nc(NCCON3C(=O)c4ccccc4C3=O)nc3c2SC2=NC(c4ccccc4)(c4ccccc4)C(=O)N23)cc1 | 10 mm | 19 mm | 15 mm | 11 mm | 7 mm | 8 mm
C[C@@H]1[C@H](O)[C@@H](C)/C=C/C=C/C=C/C=C/C=C/C=C/C=C/[C@H](O[C@@H]2O[C@H](C)[C@@H](O)[C@H](N)[C@@H]2O)C[C@@H]2O[C@](O)(C[C@@H](O)C[C@@H](O)[C@H](O)CC[C@@H](O)C[C@@H](O)CC(=O)O[C@H]1C)C[C@H](O)[C@H]2C(=O)O [AMPHOTERICIN B] | – | 17 mm | – | – | – | 10 mm
O=C(O)c1cn(C2CC2)c2cc(N3CCNCC3)c(F)cc2c1=O [CIPROFLOXACIN] | 17 mm | – | 16 mm | 18 mm | 16 mm | –
